# Values quoted from earlier work as cited in patent US11065250B2, “Solid dosage forms of palbociclib” (PFIZER INC., priority 2015, dated 2021).
# Where two headings read alike, the source gives them in different places.
# What was measured:
# [1] = low pH (2.1-4.5)
compound,measurement,setting,value
"CC(=O)c1c(C)c2cnc(Nc3ccc(N4CCNCC4)cn3)nc2n(C2CCCC2)c1=O [Palbociclib, 6-acetyl-8-cyclopentyl-5-methyl-2-(5-piperazin-1-yl-pyridin-2-ylamino)-8H-pyrido[2,3-d]pyrimidin-7-one]",solubility in words,[1],water soluble
same,pKa (pyridine nitrogen),,~4.1
same,pKa (secondary piperazine nitrogen),,approximately 7.3
same,pKa (pyridine nitrogen),listed as palbociclib,approximately 4.1
same,pKa (secondary piperazine nitrogen),listed as palbociclib,~7.3
